Like-named read-outs stand apart in the source and are kept apart here.
Assays:
[1] = test system: Adjuvant-induced Arthritis in Rat; assay: Adjuvant-induced Arthritis in rat; type: in vivo, rat (female Hla:(SD) BR); settings: oral
[2] = Ability to cause gastro-intestinal erosion in rats; design: species or system rat (male Lai:COX (SD)); settings: in vivo, rat
Experimental: Method: Test for Ability to Cause Gastro-Intestinal Erosion in Rats
Male Lai: COX (SD) rats weighing 200-250 g were acclimated for one week under standard laboratory conditions. Each animal was individually identified and body weights were determined on the first day of the test and again at autopsy. The test materials, suspended in aqueous carboxymethyl cellulose vehicle, were administered orally once daily in a volume of 1.0 ml per 100 g body weight for seven consecutive days. Food was withdrawn from the animals following the last dose and the animals were sacrificed 24 hours later. At necropsy, the stomach and intestines were removed and observed for lesions. […] The highest test dose level producing no detectable lesions is reported.

[3] = test system: Experimental Allergic Encephalomyelitis in Rat; assay: Experimental Allergic Encephalomyelitis in rat; type: in vivo, rat (female LEW/Crl BR); settings: for Body Wt.: day 17
From the text: 3. Experimental allergic encephalomyelitis in the rat. […] A mixture of syngeneic spinal cord homogenate in Freund's Complete Adjuvant injected subcutaneously into the rat induces an […] response directed against the myelin covering the nerves of the central nervous system. […] These symptoms result from attack of immune cells on the nerves with subsequent destruction and loss of ability to transmit the nervous impulses necessary for controlling muscle function. […] This is consistent with the general immuno-suppressive effects of this drug. Corticosteroid treatment also prevents the appearance of paralytic symptoms, but the dose of corticosteroid required is such that the corticosteroid itself causes weight loss greater than that produced by the disease alone. In contrast to their action in Adjuvant-inducted Arthritis in the rat, aspirin-like drugs are completely ineffective in preventing the symptoms and weight loss of experimental allergic encephalomyelitis.
Experimental Allergic Encephalomyelitis in Rat
Method: Test for Inhibition of Experimental Allergic Encephalomyelitis Induced in Rats
Female LEW/Crl BR rats weighing 125-135 g were randomly assigned to treatment groups of ten animals. Experimental allergic encephalomyelitis was induced by injecting into the right hind paw of each animal 0.1 ml of an emulsion containing 15 mg (wet weight) of syngeneic spinal cord tissue, 0.06 ml of Freund's Incomplete Adjuvant (Difco), 0.04 ml of sterile 0.9% saline and 0.2 mg of heat-killed, dried Mycobacterium butyricum (Difco). Test materials prepared as solutions or suspensions in aqueous carboxymethyl cellulose vehicle were administered orally each day for 16 days, starting on the day of injection. Animals were individually identified and weighed on day one, and again on day 17.

[4] = test system: Carrageenan-induced paw edema in the rat; assay: Carrageenan-induced paw edema in rat; type: in vivo, rat (female albino, Sim:(SD)fbr); settings: one hour prior to carrageenan
From the text: 1. Carrageenan-induced paw edema in the rat. […] A solution of carrageenan injected into the foot pad of a rat causes reddening, swelling and pain which is maximal three to six hours after administration and then resolves. […] Immuno-suppressive agents are not effective under these circumstances.
Carrageenan-induced Paw Edema in Rat
Method: Test for Determining Anti-Inflammatory Activity Utilizing Carrageenan-Induced Paw Inflammation in Rats
The method used was basically that of Winter, et al. (See, Winter, C.A., Risley, E.A., and Nuss, G.W.: Carrageenan-induced edema in hind paw of the rat as an assay for anti-inflammatory drugs, Proc. Soc. Exp. Biol. Med. 111:544-547, 1962.) Female albino rats (Sim: (SD)fbr) weighing 80-90 g received the test material p.o. in 1 ml aqueous vehicle at hour zero (0 hr). One hour later (hr 1), 0.05 ml of a 1% solution (in aqueous 0.9% NaCl) or carrageenan was injected into the right hind paw to inflame the paw. The rats were sacrificed at hour 4, at which time both hind paws were removed and individually weighed. The percent increase in the weight of the inflamed paw over that of the opposite non-inflamed paw was calculated.

[5] = test system: Gastro-Intestinal Erosion in Rats; settings: background, in words; cited from earlier work
[6] = test system: Experimental Allergic Encephalomyelitis in Rat; settings: daily treatment, background; cited from earlier work
[7] = test system: Adjuvant-induced Arthritis in Rat; settings: daily administration of appropriate doses, background; cited from earlier work
[8] = oral once daily for seven days, read-out: Minimum Dose causing G.I. Erosions
[9] = oral 10 mg/kg daily for 16 days
[10] = oral dose 10 mg/kg, * = not significant
[11] = oral dose 30 mg/kg, * = not significant
[12] = oral dose 100 mg/kg, * = not significant
[13] = oral 50 mg/kg daily for 16 days

For `CCOC(=O)Nc1cccc(C)c1C(=O)O` [2-Ethoxycarbonylamino-6-methylbenzoic acid], the “Inhibition of Adjuvant Arthritis” value ([1]; at 50 mg/kg, n.s.) was 30%, the NOAEL at 168 h [2, 8] was over 100 mg/kg/day and the “Body Wt.” value ([3]; oral 5 mg/kg daily for 16 days) was 164 ± 4.9 gm. For the same compound, the “Body Wt.” value [3, 9] was 155 ± 3.7 gm, the “Body Wt.” value ([3]; oral 25 mg/kg daily for 16 days) was 154 ± 6.0 gm and the “Inhibition of Hind Paw Weight Increase” value [4, 10] was 9. The “Inhibition of Hind Paw Weight Increase” value [4, 11] was 13 and the “Inhibition of Hind Paw Weight Increase” value [4, 12] was 12.
With `CCOC(=O)Nc1cc(OC)c(OC)cc1C(=O)O` [2-ethoxycarbonylamino-4,5-dimethoxybenzoic acid] the “Inhibition of Adjuvant Arthritis” value ([1]; at 50 mg/kg, n.s.) was 0%, the NOAEL at 168 h [2, 8] was over 100 mg/kg/day and the “Body Wt.” value ([3]; oral 2 mg/kg daily for 16 days) was 157 ± 4.0 gm. For the same compound, the “Body Wt.” value [3, 9] was 137 ± 5.7 gm and the “Body Wt.” value [3, 13] was 154 ± 5.8 gm.
For `CCOC(=O)Nc1ccccc1C(=O)O` [2-Ethoxycarbonyl-aminobenzoic acid, 2-ethoxycarbonylaminobenzoic acid], the “Body Wt.” value ([3]; oral 2 mg/kg daily for 16 days) was 150 ± 4.2 gm, the “Body Wt.” value [3, 9] was 162 ± 3.4 gm and the “Body Wt.” value [3, 13] was 151 ± 4.4 gm.
In the case of `Cc1cccc(NC(=O)OCC(C)C)c1C(=O)O` [2-isobutoxycarbonylamino-6-methylbenzoic acid], the “Inhibition of Adjuvant Arthritis” value ([1]; at 50 mg/kg, n.s.) is reported as 0%, the NOAEL at 168 h [2, 8] is reported as over 100 mg/kg/day and the “Inhibition of Hind Paw Weight Increase” value [4, 12] is reported as 23.
In the case of `Cc1cccc(NC(=O)OCc2ccccc2)c1C(=O)O` [2-benzyloxycarbonylamino-6-methylbenzoic acid], the “Body Wt.” value [3, 9] is reported as 146 ± 3.6 gm and the “Inhibition of Hind Paw Weight Increase” value [4, 12] is reported as 10.
For `Cc1cccc(N)c1C(=O)O` [2-Amino-6-methylbenzoic acid, 2-amino-6-methyl-benzoic acid, reference compound], the “Inhibition of Adjuvant Arthritis” value ([1]; at 50 mg/kg, n.s.) was 0%, the NOAEL at 168 h ([2]; po) was over 250 mg/kg/day and the “Body Wt.” value ([3]; oral 2 mg/kg daily for 16 days) was 153 ± 5.2 gm. For the same compound, the “Body Wt.” value [3, 9] was 145 ± 4.1 gm, the “Body Wt.” value [3, 13] was 141 ± 4.0 gm and the “Inhibition of Hind Paw Weight Increase” value [4, 10] was 5. The “Inhibition of Hind Paw Weight Increase” value [4, 11] was 7 and the “Inhibition of Hind Paw Weight Increase” value [4, 12] was 0.
In the case of `O=C(Nc1ccccc1C(=O)O)OCc1ccccc1` [2-Benzyloxycarbonyl-aminobenzoic acid, 2-benzyloxycarbonylaminobenzoic acid], the “Body Wt.” value ([3]; oral 2 mg/kg daily for 16 days) is reported as 131 ± 3.6 gm and the “Body Wt.” value [3, 9] is reported as 141 ± 6.3 gm.
In the case of `O=C(O)c1ccccc1Nc1cccc(C(F)(F)F)c1` [Flufenamic acid, reference compound], the “Inhibition of Adjuvant Arthritis” value ([1]; at 35 mg/kg) is listed as 80%, the NOAEL at 168 h ([2]; po) is listed as 35 mg/kg/day and the “gastro-intestinal effects associated with aspirin-like drugs” value [5] is listed as “gastro-intestinal (ulcerogenic) effects”. For the same compound, the “Body Wt.” value ([3]; oral 30 mg/kg daily for 16 days) was 135 ± 2.4 gm, the “Body Wt.” value ([3]; oral 100 mg/kg daily for 16 days) was 128 ± 2.1 gm and the “Inhibition of Hind Paw Weight Increase” value [4, 10] was 35. For the same compound, the “Inhibition of Hind Paw Weight Increase” value [4, 12] was 52.
In the case of `C[C@@H]1C[C@H]2[C@@H]3CCC4=CC(=O)C=C[C@]4(C)[C@@]3(F)[C@@H](O)C[C@]2(C)[C@@]1(O)C(=O)CO` [Dexamethasone, reference compound], the “Body Wt.” value ([3]; oral 0.25 mg/kg daily for 16 days) is reported as 130 ± 0.4 gm, the “% Animals With Paralysis” value ([3]; oral 0.25 mg/kg daily for 16 days, observed days 12-17) is reported as 0% and the “Inhibition of Hind Paw Weight Increase” value ([4]; oral dose 0.1 mg/kg) is reported as 71.
For `O=P1(N(CCCl)CCCl)NCCCO1` (stereo not drawn) [cyclophosphamide], the “effect on weight loss and paralysis in experimental allergic encephalomyelitis” value [6] is listed as “gives protection from the weight loss and paralysis” and the “control of manifestations of Adjuvant-induced arthritis” value [7] is listed as “effectively controlled”.
In the case of `COc1cc(NC(=O)OCc2ccccc2)c(C(=O)O)cc1OC` [2-benzyloxycarbonylamino-4,5-dimethoxybenzoic acid], the “Body Wt.” value ([3]; oral 2 mg/kg daily for 16 days) is reported as 142 ± 5.3 gm and the “Body Wt.” value [3, 9] is reported as 144 ± 3.9 gm.
